Series [1] concerns alternative complement pathway in human serum. Briefly: Complement deposition assay of serum alternative pathway (Wieslab Complement system Alternative pathway kit). It is filed as biochemical. The settings on record: human serum diluted 18-fold, 37 °C 60 minutes, absorbance 405 nm. As for the experimental part: The Wieslab® Complement system Alternative pathway kit (WIESLAB® Complement system Alternative pathway AP330 RUO) was used to detect the inhibitory activity of the compounds on the alternative complement pathway in human serum. Human serum was diluted 18-fold with the kit diluent. The diluted serum was added to a 96-well plate at 130 µL/well. Using a compound titrator (Tecan, D300e), test compounds at corresponding concentrations were added. The test concentration of the compounds started at 10 µM, with 3-fold serial dilution for 6 concentration points, detected in single wells. The DMSO ratio was uniformly adjusted to 0.1% using DMSO in all drug-treated wells. In the positive control wells, 0.1% DMSO and 130 µL of diluted serum were added; in the negative control wells, 0.1% DMSO and 130 µL of the kit diluent were added. The mixtures were pre-incubated at room temperature for 15 min. The incubated mixtures were transferred to the 96-well plate provided by the kit at 100 µL per well, incubated at 37 °C for 60 minutes, and the liquid in the wells was discarded. 300 µL of the washing solution in the kit was added to each well. The wells were washed three times. 100 µL of the conjugated antibody Conjugate in the kit was added to each well, and it was incubated at room temperature for 30 minutes. The liquid in the wells was removed. 300 µL of the washing solution in the kit was added to each well and the wells were washed three times. 100 µL of the substrate solution was added to each well and incubated at room temperature for 30 minutes. […] Table 2. Results of complement deposition in serum alternative pathway

For series [2], the target named is T1, human complement factor B (Homo sapiens, UniProt P00751).
T1 construct: purchased ComplementTech A135
Briefly: TR-FRET competitive binding assay of human complement factor B (Cy5-labeled probe). The settings on record: inhibitory activity against complement factor B; biotin-labeled factor B 25 nM, Cy5 probe 75 nM, 4 °C.

Series [3] in a line: Pharmacokinetic study in mice. Format: in vivo. The settings on record: mouse, 10 mg/kg, PO (10 mpk), male ICR (CD-1) mice, plasma. As for the experimental part:
Experimental Example 3: Pharmacokinetic study in mice
Purpose of the experiment: To investigate the plasma pharmacokinetics in male ICR (CD-1) mice after single intravenous administration and gavage administration of the compounds of the present disclosure.
Experimental animals: Male ICR (CD-1) mice, body weight 32-35 g; supplier: Vital River Laboratory Animal Technology Co., Ltd.
Experimental procedures: Intravenous Administration (IV); Oral Gavage (PO); the dose was 10 mg/kg (vehicle: water (containing 0.5% methylcellulose (w/v) and 0.5% Tween 80 (v/v)).
Sample collection: At each set time point, 40 µL of blood was collected from the orbital sinus of the experimental animals. Whole blood samples were placed in anticoagulant tubes containing EDTA-K2. The whole blood samples were centrifuged at 1500 g for 10 min to separate plasma. The upper-layer plasma samples were collected into sample tubes for LC-MS/MS analysis.
Data analysis: Plasma concentrations were processed using the non-compartmental model in WinNonlin™Version6.3 (Pharsight, Mountain View, CA) pharmacokinetic software. Pharmacokinetic parameters Cl, T1/2, Cmax, and AUC0-24 were calculated using the linear-log trapezoidal method, and the results were shown in the table below. Table 3. Results of the pharmacokinetic study

In series [4] the test system is collagen antibody and lipopolysaccharide-induced arthritis (CAIA). In words: Pharmacodynamic study in the mouse CAIA model (Experimental Example 5). It is filed as in vivo, BALB/c mice. The note with it: Mean; 20mg/kg bid oral, Day0-Day14; larger AUC = greater severity. As for the experimental part:
Experimental Animals: BALB/c mice, male, 6-8 weeks, 18-20 g; Supplier: Shanghai Jihui Laboratory Animal Care Co., Ltd 1. Induction of the mouse CAIA model: On Day 0, all mice were intravenously injected via the tail vein with 0.15 mL of Arthrogen-CIA 5-clone mixed type II collagen antibody (10 mg/mL, Chondrex). […] 2. Administration: Table 7. Administration groups and administration schemes [table] The experimental data are expressed as mean±standard error (mean ± S.E.M.). The data were analyzed by One-way ANOVA/Dunnett's using Graphpad Prism and by Repeat Measurement ANOVA/Bonferroni using SPSS. P< 0.05 was considered to indicate a significant difference. Arthritis scoring: Starting from the day of modeling, the incidence of arthritis in the limbs of the animals in each group was observed three times a week until the end of the experiment. According to the different degrees of lesions (erythema and swelling), the scoring was carried out according to the standard of 0-4 points. […] The larger the AUC, the greater the severity of arthritis was. […] Arthritis score AUC

Series [5] has the same test system. Briefly: Collagen antibody-induced mouse arthritis model (Experimental Example 4). Format: in vivo, BALB/c mice. The note with it: Mean, 20 mg/kg oral twice a day. As for the experimental part: Experimental animals: BALB/c mice, male, 6-8 weeks, 18-20 g; supplier: Beijing Vital River Laboratory Animal Technology Co., Ltd. 1. […] 2. Administration: Table 4. Administration groups and administration schemes [table] The data were analyzed by One-way ANOVA/Dunnett's using Graphpad Prism and by Repeat Measurement ANOVA/Bonferroni using SPSS. P< 0.05 was considered to indicate a significant difference. Arthritis scoring: Starting from the day of modeling, the incidence of arthritis in the limbs of the animals in each group was observed three times a week until the end of the experiment. According to the different degrees of lesions (erythema and swelling), the scoring was carried out according to the standard of 0-4 points. […] Joint swelling: Starting from the day of modeling, the thickness of the left and right foot pads of the animals was measured three times a week using a micrometer (Mitutoyo, 0-25 mm, minimal 0.001 mm) until the end of the experiment.

We go through 18 molecules from EP4650351A1, “INHIBITOR OF COMPLEMENT FACTOR B” (Nanjing Chia Tai Tianqing Pharmaceutical Co., Ltd., priority 2023, dated 2024).

For orientation: IC50 means the concentration needed to halve the response being measured. The Cmax is the peak of the concentration-time curve.

Molecules are shown by their SMILES.

T1 sequence (P00751 26-764): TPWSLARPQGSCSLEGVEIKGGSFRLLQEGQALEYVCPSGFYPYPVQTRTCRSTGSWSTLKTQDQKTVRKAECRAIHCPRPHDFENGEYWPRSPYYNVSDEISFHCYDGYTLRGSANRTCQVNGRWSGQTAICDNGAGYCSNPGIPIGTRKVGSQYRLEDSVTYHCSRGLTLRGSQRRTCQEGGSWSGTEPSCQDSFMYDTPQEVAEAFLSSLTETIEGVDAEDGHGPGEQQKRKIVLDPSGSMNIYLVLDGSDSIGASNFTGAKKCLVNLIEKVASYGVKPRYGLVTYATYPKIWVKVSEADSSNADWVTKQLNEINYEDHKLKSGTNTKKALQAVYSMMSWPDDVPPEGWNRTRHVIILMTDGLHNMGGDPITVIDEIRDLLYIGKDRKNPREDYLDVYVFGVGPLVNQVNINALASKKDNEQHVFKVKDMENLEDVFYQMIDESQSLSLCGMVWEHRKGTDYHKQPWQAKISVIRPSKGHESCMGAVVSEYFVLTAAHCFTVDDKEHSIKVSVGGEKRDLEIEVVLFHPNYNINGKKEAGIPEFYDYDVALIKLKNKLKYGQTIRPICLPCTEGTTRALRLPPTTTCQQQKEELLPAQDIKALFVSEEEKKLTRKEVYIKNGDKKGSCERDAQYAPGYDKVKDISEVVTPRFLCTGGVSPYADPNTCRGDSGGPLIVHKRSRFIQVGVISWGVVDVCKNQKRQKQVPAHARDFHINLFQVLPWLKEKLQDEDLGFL

`CCCN1CCN(Cc2c(OC)cc(C)c3[nH]ccc23)C(c2ccc(C(=O)O)cc2)C1` (racemic) [Example 1-2, (±)4-(1-((5-methoxy-7-methyl-1H-indol-4-yl)methyl)-4-propylpiperazin-2-yl)benzoic acid] came in with an IC50 in series [1] of 132 nM.
In the case of `CCOC1CCC(Sc2c(OC)cc(C)c3[nH]ccc23)C(c2ccc(C(=O)O)cc2)C1` (single isomer, unassigned) [Example 19b-2], the half-maximal inhibitory concentration (IC50) in series [2] was 8 nM; in series [1], 104 nM.
Consider `CCO[C@H]1CCN(Cc2c(OC)cc(C)c3[nH]ccc23)[C@H](c2ccc(C(=O)O)cc2)C1` [LNP023, reference compound], for which, in series [3], the peak level (Cmax) was 1160 ng/mL. The AUC(0-t) in series [3] (read-out: AUC0-24) worked out at 4110 ng·h/mL.
In the case of `[2H]C([2H])([2H])Oc1cc(C)c2[nH]ccc2c1O[C@@H]1CCN(CC(F)F)C[C@H]1c1ccc(C(=O)O)cc1` [Example 26, 4-((3R,4R)-1-(2,2-difluoroethyl)-4-((5-(methoxy-d3)-7-methyl-1H-indol-4-yl)oxy)piperidin-3-yl) benzoic acid], in series [2], the concentration for half-maximal inhibition (IC50) worked out at 12.2 nM. In addition, in series [3], the Cmax came out at 944 ng/mL. Further, the AUC(0-t) in series [3] (read-out: AUC0-24) came out at 4960 ng·h/mL.
Regarding `COc1cc(C)c2[nH]ccc2c1CN1CCN(CC(F)F)CC1c1ccc(C(=O)O)cc1` (racemic) [Example 6-2, (±)4-(4-(2,2-difluoroethyl)-1-((5-methoxy-7-methyl-1H-indol-4-yl)methyl)piperazin-2-yl)benzoic acid], the IC50 in series [1] was 215 nM.
Turning to `COc1cc(C)c2[nH]ccc2c1SC1CCN(CC(F)F)CC1c1ccc(C(=O)O)cc1` (single isomer, unassigned) [Example 16-2], the figures for the IC50 in series [2] and in series [1] were 12.4 nM and […], respectively. The Cmax in series [3] (in vivo) came to 601 ng/mL. Also, in series [3] (in vivo, read-out: AUC0-24), the AUC(0-t) at 24 h is 5750 ng·h/mL. The “Arthritis score AUC” value in series [4] came out at 7.25.
For the molecule `COc1cc(C)c2[nH]ccc2c1O[C@@H]1CCN(CC(F)F)C[C@H]1c1ccc(C(=O)O)cc1` [Example 13a-2, 4-((3R,4R)-1-(2,2-difluoroethyl)-4-((5-methoxy-7-methyl-1H-indol-4-yl)oxy)piperidin-3-yl)benzoic acid], the results for the half-inhibitory concentration (IC50) in series [2] and in series [1] were 6 nM and 54.1 nM, respectively. Besides, the peak level in series [3] (Cmax) was 1290 ng/mL. Moreover, the AUC(0-t) in series [3] (read-out: AUC0-24) was found to be 9680 ng·h/mL. The Arthritis score is 0.00 in series [5] (Day0); 0.00 in series [5] (Day3); 1.17 in series [5] (Day5); 1.83 in series [5] (Day7); 1.50 in series [5] (Day10); 1.33 in series [5] (Day12). The Arthritis score in series [5] (Day14) turned out to be 1.50. In addition, the “Thickness of foot pads (mm)” value in series [5] (Day0) amounted to 1.60 mm; in series [5] (Day3), 1.607 mm; in series [5] (Day5) it was 1.632 mm; in series [5] (Day7), 1.665 mm; in series [5] (Day10), 1.666 mm; in series [5] (Day12), 1.661 mm. Besides, the “Thickness of foot pads (mm)” value in series [5] (Day14) is listed as 1.669 mm.
In series [2], `COc1cc(C)c2[nH]ccc2c1O[C@@H]1CCN(CC(F)(F)F)C[C@H]1c1ccc(-c2n[nH]c(=O)o2)cc1` [Example 33, 5-(4-((3R,4R)-4-((5-methoxy-7-methyl-1H-indol-4-yl)oxy)-1-(2,2,2-trifluoroethyl)piperidin-3-yl)phenyl)-1,3,4-oxadiazol-2(3H)-one] yielded an IC50 of 23.7 nM.
On the same count and under the same terms, the same measure for `CCOC1CCC(Sc2c(OC)cc(C)c3[nH]ccc23)C(c2ccc(C(=O)O)cc2)C1` (single isomer, unassigned) [Example 19b-4]: 178 nM.
Same read-out and setting: with `Cc1cc(OC(F)F)c(O[C@@H]2CCN(CC(F)F)C[C@H]2c2ccc(C(=O)O)cc2)c2cc[nH]c12` [Example 29, 4-((3R,4R)-1-(2,2-difluoroethyl)-4-((5-(difluoromethoxy)-7-methyl-1H-indol-4-yl)oxy)piperidin-3-yl) benzoic acid] the figure was 31.2 nM.
In turn, `[2H]C([2H])([2H])Oc1cc(C)c2[nH]ccc2c1O[C@H]1CCN(CCC(F)(F)F)C[C@@H]1c1ccc(C(=O)O)cc1` (single isomer, unassigned) [Example 17a-2] gave a maximum concentration (Cmax) in series [3] of 679 ng/mL. The AUC(0-t) in series [3] (read-out: AUC0-24) was determined as 6480 ng·h/mL.
With `CCOC1CCC(Oc2c(OC)cc(C)c3[nH]ccc23)C(c2ccc(C(=O)O)cc2)C1` (single isomer, unassigned) [Example 20a-4], the results for the half-maximal inhibitory concentration (IC50) in series [2] and in series [1] were 12.2 nM and 86.7 nM, respectively.
In series [2], `Cc1cc(OC(F)F)c(O[C@@H]2CCN(CC(F)(F)F)C[C@H]2c2ccc(C(=O)O)cc2)c2cc[nH]c12` [Example 28, 4-((3R,4R)-4-((5-(difluoromethoxy)-7-methyl-1H-indol-4-yl)oxy)-1-(2,2,2-trifluoroethyl)piperidin-3-yl)benzoic acid] had an IC50 of 46 nM.
`COc1cc(C)c2[nH]ccc2c1O[C@H]1CCN(CCC(F)(F)F)C[C@@H]1c1ccc(C(=O)O)cc1` (single isomer, unassigned) [Example 15a-2] gave an IC50 in series [1] of 54.8 nM.
For `CCOC1CCC(Cc2c(OC)cc(C)c3[nH]ccc23)N(c2ccc(C(=O)O)cc2)C1` (single isomer, unassigned) [Example 32a-4, 4-(5-ethoxy-2-((5-methoxy-7-methyl-1H-indol-4-yl)methyl)piperidin-1-yl)benzoic acid], the half-inhibitory concentration (IC50) in series [2] is 285 nM.
Take `COc1cc(C)c2[nH]ccc2c1CN1CCN(CC(F)F)CC1c1ccc(C(=O)O)cc1` (racemic) [Example 6-1, (±)4-(4-(2,2-difluoroethyl)-1-((5-methoxy-7-methyl-1H-indol-4-yl)methyl)piperazin-2-yl)benzoic acid]: in series [2], the IC50 was over 1000 nM.
The same measure, in the same setting: the same measure for `COc1cc(C)c2[nH]ccc2c1CN1CCN(CCC(F)(F)F)CC1c1ccc(C(=O)O)cc1` (racemic) [Example 9, (±)4-(1-((5-methoxy-7-methyl-1H-indol-4-yl)methyl)-4-(3,3,3-trifluoropropyl)piperazin-2-yl) benzoic acid]: 28.2 nM; for `COc1cc(C)c2[nH]ccc2c1SC1CCN(CC(F)F)CC1c1ccc(C(=O)O)cc1` (single isomer, unassigned) [Example 16-4]: 196 nM.
